Earlier results on eleven molecules are cited in patent US8648119B2, “Controlled release immunomodulator compositions and methods for the treatment of otic disorders” (Otonomy, Inc., priority 2008, dated 2014).

As a reminder, the IC50 is the midpoint of a concentration-inhibition curve.

Data set [1] has as its system mouse collagen-induced arthritis model. Conditions: 30 mg/kg dose.
The test system of the next data set is rat arthritis model. Conditions: 30 mg/kg.
For data set [2], the system named is Langerhans' cells or dermal connective tissue. Conditions: in vivo.
For data set [3] the following is noted: in vivo.
Data set [4] relates to TNF-α production in the LPS-induced MonoMac-6 cells. The settings on record: read-out: IC50 for inhibiting TNF-α production.
The target in a further data set is TACE (Homo sapiens, UniProt P78536).
Data set [5] relates to TNF-α production in the LPS-induced human PBMC cells. The settings on record: read-out: IC50 for inhibiting TNF-α production.
The test system of data set [6] is patients.
The next data set has as its system TNF expressing cells. Conditions: in vitro, in the presence of complement.
The target of the data set “lymphotoxin (TNF-β)” is T1, lymphotoxin (TNF-β (Homo sapiens, UniProt P01374)).
T1 sequence (P01374 35-205): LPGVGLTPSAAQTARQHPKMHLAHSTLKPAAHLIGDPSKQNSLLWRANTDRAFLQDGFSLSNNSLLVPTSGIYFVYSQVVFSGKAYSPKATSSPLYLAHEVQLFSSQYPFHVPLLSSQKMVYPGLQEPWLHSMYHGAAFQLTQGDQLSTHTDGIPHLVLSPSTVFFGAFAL

In the next data set the test system is Meniere's disease. Conditions: infusion into the scala tympani.
The test system of data set [7] is patients. The settings on record: three phase-III clinical trials.

TACE, sequence (P78536 215-824): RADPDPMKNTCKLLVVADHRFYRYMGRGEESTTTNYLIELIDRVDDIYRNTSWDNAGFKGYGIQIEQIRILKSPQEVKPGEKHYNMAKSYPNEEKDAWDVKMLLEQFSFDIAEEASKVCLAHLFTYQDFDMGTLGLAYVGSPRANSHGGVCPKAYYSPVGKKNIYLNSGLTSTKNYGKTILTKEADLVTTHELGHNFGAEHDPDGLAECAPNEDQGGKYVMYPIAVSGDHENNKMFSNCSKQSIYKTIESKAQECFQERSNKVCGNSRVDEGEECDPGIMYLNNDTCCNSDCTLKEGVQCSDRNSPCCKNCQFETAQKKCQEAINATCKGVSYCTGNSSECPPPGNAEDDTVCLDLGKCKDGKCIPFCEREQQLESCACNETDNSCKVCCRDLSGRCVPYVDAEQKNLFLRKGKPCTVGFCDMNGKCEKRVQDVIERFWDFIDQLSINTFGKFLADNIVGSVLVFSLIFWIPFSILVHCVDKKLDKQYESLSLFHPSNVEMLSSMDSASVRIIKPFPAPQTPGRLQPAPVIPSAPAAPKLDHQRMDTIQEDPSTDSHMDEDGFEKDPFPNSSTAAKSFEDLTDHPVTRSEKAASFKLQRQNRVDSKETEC

Take `Cc1ccc2nc(NCCN)c3ncc(C)n3c2c1` [BMS-345541]: the severity of disease entry in [1] was “significantly reduced the severity of disease”.
Take `COc1cccc2nc(-c3cccs3)nc(NN3C(=O)C=C(C)C3=O)c12` [SPC-839]: the paw edema entry with rat arthritis model was “reduces paw edema”.
For `CC[C@@H]1/C=C(\C)C[C@H](C)C[C@H](OC)[C@H]2O[C@@](O)(C(=O)C(=O)N3CCCC[C@H]3C(=O)O[C@H](/C(C)=C/[C@@H]3CC[C@H](Cl)[C@H](OC)C3)[C@H](C)[C@@H](O)CC1=O)[C@H](C)C[C@@H]2OC` [pimecrolimus, (1R,9S,12S,13R,14S,17R,18E,21S,23S,24R,25S,27R)-12-[(1E)-2-{(1R,3R,4S)-4-chloro-3-methoxycyclohexyl}-1-methylvinyl]-17-ethyl-1,14-dihydroxy-23,25-dimethoxy-13,19,21,27-tetramethyl-11,28-dioxa-4-aza-tricyclo[22.3.1.04,9]octacos-18-ene-2,3,10,16-tetraone], the “systemic exposure after topical application” value is given as “very little, if any, systemic exposure”. Moreover, in data set [2], the “atrophy of the skin” value was “do not cause atrophy of the skin” and the “suppression of Langerhans' cells or dermal connective tissue” value is “do not suppress Langerhans' cells or dermal connective tissue”.
For `CC(C)C[C@@H](C(=O)N[C@@H](CCCN/C(N)=N/[N+](=O)[O-])C(=O)Nc1nccs1)[C@H](C(C)C)N(O)C=O` [Nitroarginine analog A], the oral activity result in data set [3] was “lacks oral activity”. The IC50 was 34 nM in data set [4] and 4 nM at TACE.
For the molecule `CC[C@H](C)[C@H](NC(=O)[C@H](CC(C)C)[C@H](C(C)C)N(O)C=O)C(=O)Nc1ccccn1` [GW3333], in data set [5], the IC50 was 970 nM.
On to `O=C(Nc1cc(Cl)cc2c1[nH]c1cnccc12)c1cccnc1` [PS-1145], for which the “production of TNF-α” value in the data set with LPS-challenged mice is given as “reduces the production of TNF-α”.
Turning to `C=CC[C@@H]1/C=C(\C)C[C@H](C)C[C@H](OC)[C@H]2O[C@@](O)(C(=O)C(=O)N3CCCC[C@H]3C(=O)O[C@H](/C(C)=C/[C@@H]3CC[C@@H](O)[C@H](OC)C3)[C@H](C)[C@@H](O)CC1=O)[C@H](C)C[C@@H]2OC` (relative stereo) [tacrolimus, [3S-[3R*[E(1S*,3S*,4S*)], 4S*,5R*,8S*,9E,12R*,14R*,15S*,16R*,18S*,19S*,26aR*]]-5,6,8,11,12,13,14,15,16,17,18,19,24,25,26,26a-hexadecahydro-5,19-dihydroxy-3-[2-(4-hydroxy-3-methoxycyclohexyl)-1-methylethenyl]-14,16-dimethoxy-4,10,12,18-tetramethyl-8-(2-propenyl)-15,19-epoxy-3H-pyrido[2,1-39c][1,4]oxaazacyclotricosine-1,7,20,21 (4H,23H)-tetrone monohydrate], the “bioavailability after topical application” value is “less than 0.5%” and the “systemic exposure after topical application” value is given as “very little, if any, systemic exposure”. Besides, in data set [2], the “atrophy of the skin” value is “do not cause atrophy of the skin” and the “suppression of Langerhans' cells or dermal connective tissue” value is reported as “do not suppress Langerhans' cells or dermal connective tissue”.
For Adalimumab, the “patients developing injection site reactions (erythema and/or itching, hemorrhage, pain and/or swelling)” value in the data set on patients [6] (systemic administration) is 20%. The “lysis of TNF expressing cells” value in the data set on TNF expressing cells is listed as “lyses TNF expressing cells in vitro”. The “binding or inactivation of lymphotoxin (TNF-β)” value at lymphotoxin (TNF-β) is given as “does not bind or inactivate lymphotoxin”.
With `Cc1ccccc1C(=O)Nc1ccc(C(=O)N2CCCC(N(C)C)c3ccccc32)cc1` (centres unmarked) [OPC-31260], the “Meniere's disease symptoms” value with Meniere's disease was “marked reduction of Meniere's disease symptoms”.
As for etanercept, in the data set with patients [6] (systemically treated), the “patients experiencing injection site reactions (mild to moderate erythema and/or itching, pain and/or swelling)” value is listed as “over one-third of patients”.
As for “onercept: a soluble TNF p55 receptor, TNF binding factor (Serono)”, in the data set with patients [7], the “adverse outcome reported in phase-III clinical trials” value was “patients diagnosed with fatal sepsis”.
